Each compound was assayed against T1, Recombinant Human ENPP-2/Autotaxin (Homo sapiens, UniProt Q13822) (assay: LysoPLD activity measurement (autotaxin enzyme inhibition, choline release, TOOS reagent)). Conditions: LysoPLD inhibitory activity; substrate 14:0 LysoPC; absorbance at 555 nm.
T1 construct: purchased R&D systems 5255-EN
Format: biochemical
How it was run: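 Enzyme and compound were preincubated for 30 min before adding 14:0 LysoPC substrate, diluted to 300 μM, for 90 minutes at 37° C. The choline product was quantified colorimetrically with TOOS reagent. Wells without compound held 1% DMSO.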

Compared with O=C(O)c1cccc(C2(n3c(=O)n(-c4ccc(C(=O)N5CC(O)C5)cc4)c4cc(Cl)cnc43)CC2)c1F [Example 232, 3-(1-(6-chloro-1-(4-(3-hydroxyazetidine-1-carbonyl)phenyl)-2-oxo-1,2-dihydro-3H-imidazo[4,5-b]pyridin-3-yl)cyclopropyl)-2-fluorobenzoic acid], O=C(O)c1cccc(C2(n3c(=O)n(-c4ccc(C(=O)N5CC6(COC6)C5)cc4)c4cc(Cl)cnc43)CC2)c1F [Example 233, 3-(1-(1-(4-(2-oxa-6-azaspiro[3.3]heptane-6-carbonyl)phenyl)-6-chloro-2-oxo-1,2-dihydro-3H-imidazo[4,5-b]pyridin-3-yl)cyclopropyl)-2-fluorobenzoic acid] is higher in IC50: less than 10 nM for the first, 10 to 100 nM for the second. The first is the more potent here.

CCC(=O)N1CCC(c2ccc(-n3c(=O)n(C4(c5cccc(C(=O)O)c5)CC4)c4ccc(Cl)cc43)cc2)CC1 [Example 234, 3-(1-(5-chloro-2-oxo-3-(4-(1-propionylpiperidin-4-yl)phenyl)-2,3-dihydro-1H-benzo[d]imidazol-1-yl)cyclopropyl)benzoic acid] and CCC(=O)N1CCC(c2ccc(-n3c(=O)n(C4(c5cc(F)cc(C(=O)O)c5)CC4)c4ccc(Cl)cc43)cc2)CC1 [Example 235, 3-(1-(5-chloro-2-oxo-3-(4-(1-propionylpiperidin-4-yl)phenyl)-2,3-dihydro-1H-benzo[d]imidazol-1-yl)cyclopropyl)-5-fluorobenzoic acid] cannot be ordered by IC50: less than 10 nM for the first, less than 10 nM for the second.

O=C(O)c1cccc(C2(n3c(=O)n(-c4ccc(CN5CCCC5=O)cc4)c4cc(Cl)ccc43)CC2)c1 [Example 236, 3-(1-(5-chloro-2-oxo-3-(4-((2-oxopyrrolidin-1-yl)methyl)phenyl)-2,3-dihydro-1H-benzo[d]imidazol-1-yl)cyclopropyl)benzoic acid] and CN1CCN(Cc2ccc(-n3c(=O)n(C4(c5cccc(C(=O)O)c5)CC4)c4ccc(Cl)cc43)cc2)C1=O [Example 241, 3-(1-(5-chloro-3-(4-((3-methyl-2-oxoimidazolin-1-yl)methyl)phenyl)-2-oxo-2,3-dihydro-1H-benzo[d]imidazol-1-yl)cyclopropyl)benzoic acid] cannot be ordered by IC50: less than 10 nM for the first, less than 10 nM for the second.

First: O=C(O)c1cccc(C2(n3c(=O)n(-c4ccc(Cn5cnc(C(F)(F)F)c5)cc4)c4cc(Cl)ccc43)CC2)c1 [Example 237, 3-(1-(5-chloro-2-oxo-3-(4-((4-(trifluoromethyl)-1H-imidazol-1-yl)methyl)phenyl)-2,3-dihydro-1H-benzo[d]imidazol-1-yl)cyclopropyl)benzoic acid]
Second: O=C(O)c1cccc(C2(n3c(=O)n(-c4ccc(Cn5ccc(C(F)(F)F)n5)cc4)c4cc(Cl)ccc43)CC2)c1 [Example 244, 3-(1-(5-chloro-2-oxo-3-(4-((3-(trifluoromethyl)-1H-pyrazol-1-yl)methyl)phenyl)-2,3-dihydro-1H-benzo[d]imidazol-1-yl)cyclopropyl)benzoic acid]
The IC50 of the first is lower: 10 to 100 nM for the first, 100 to 1000 nM for the second.

O=C(O)c1cccc(C2(n3c(=O)n(-c4ccc(C5(CO)CC5)cc4)c4cc(Cl)ccc43)CC2)c1 [Example 238, 3-(1-(5-chloro-3-(4-(1-(hydroxymethyl)cyclopropyl)phenyl)-2-oxo-2,3-dihydro-1H-benzo[d]imidazol-1-yl)cyclopropyl)benzoic acid] and O=C(O)c1cccc(C2(n3c(=O)n(-c4ccc(C5(CO)CCC5)cc4)c4cc(Cl)ccc43)CC2)c1 [Example 239, 3-(1-(5-chloro-3-(4-(1-(hydroxymethyl)cyclobutyl)phenyl)-2-oxo-2,3-dihydro-1H-benzo[d]imidazol-1-yl)cyclopropyl)benzoic acid] cannot be ordered by IC50: less than 10 nM for the first, less than 10 nM for the second.

O=C(O)c1cccc(C2(n3c(=O)n(-c4ccc(CC5COC5)cc4)c4cc(Cl)ccc43)CC2)c1 [Example 240, 3-(1-(5-chloro-3-(4-(oxetan-3-ylmethyl)phenyl)-2-oxo-2,3-dihydro-1H-benzo[d]imidazol-1-yl)cyclopropyl)benzoic acid] and O=C(O)c1cccc(C2(n3c(=O)n(-c4ccc(C5CCOC5)cc4)c4cc(Cl)ccc43)CC2)c1 (centres unmarked) [Example 248, 3-(1-(5-chloro-2-oxo-3-(4-(tetrahydrofuran-3-yl)phenyl)-2,3-dihydro-1H-benzo[d]imidazol-1-yl)cyclopropyl)benzoic acid] cannot be ordered by IC50: less than 10 nM for the first, less than 10 nM for the second.

CC1(C)COC(=O)N1c1ccc(-n2c(=O)n(C3(c4cccc(C(=O)O)c4)CC3)c3ccc(Cl)cc32)cc1 [Example 242, 3-(1-(5-chloro-3-(4-(4,4-dimethyl-2-oxooxazolidin-3-yl)phenyl)-2-oxo-2,3-dihydro-1H-benzo[d]imidazol-1-yl)cyclopropyl)benzoic acid] and O=C(O)c1cccc(C2(n3c(=O)n(-c4ccc(N5C(=O)OCC56CC6)cc4)c4cc(Cl)ccc43)CC2)c1 [Example 243, 3-(1-(5-chloro-2-oxo-3-(4-(5-oxo-6-oxa-4-azaspiro[2.4]heptan-4-yl)phenyl)-2,3-dihydro-1H-benzo[d]imidazol-1-yl)cyclopropyl)benzoic acid] cannot be ordered by IC50: less than 10 nM for the first, less than 10 nM for the second.

CN1Cc2cc(-n3c(=O)n(C4(c5cccc(C(=O)O)c5)CC4)c4ccc(Cl)cc43)ccc2C1=O [Example 245, 3-(1-(5-chloro-3-(2-methyl-1-oxoisoindolin-5-yl)-2-oxo-2,3-dihydro-1H-benzo[d]imidazol-1-yl)cyclopropyl)benzoic acid] and CC1(C)OCc2cc(-n3c(=O)n(C4(c5cccc(C(=O)O)c5)CC4)c4ccc(Cl)cc43)ccc21 [Example 251, 3-(1-(5-chloro-3-(1,1-dimethyl-1,3-dihydroisobenzofuran-5-yl)-2-oxo-2,3-dihydro-1H-benzo[d]imidazol-1-yl)cyclopropyl)benzoic acid] cannot be ordered by IC50: less than 10 nM for the first, less than 10 nM for the second.

CC(C)(O)c1ccc(-n2c(=O)n(C3(c4cccc(C(=O)O)c4)CC3)c3ccc(Cl)cc32)cc1 [Example 246, 3-(1-(5-chloro-3-(4-(2-hydroxypropane-2-yl)phenyl)-2-oxo-2,3-dihydro-1H-benzo[d]imidazol-1-yl)cyclopropyl)benzoic acid] and CC1(c2ccc(-n3c(=O)n(C4(c5cccc(C(=O)O)c5)CC4)c4ccc(Cl)cc43)cc2)COC1 [Example 247, 3-(1-(5-chloro-3-(4-(3-methyloxetan-3-yl)phenyl)-2-oxo-2,3-dihydro-1H-benzo[d]imidazol-1-yl)cyclopropyl)benzoic acid] cannot be ordered by IC50: less than 10 nM for the first, less than 10 nM for the second.

O=C(O)c1cc(F)cc(C2(n3c(=O)n(-c4ccc(C5CCOC5)cc4)c4cc(Cl)ccc43)CC2)c1 (centres unmarked) [Example 249, 3-(1-(5-chloro-2-oxo-3-(4-(tetrahydrofuran-3-yl)phenyl)-2,3-dihydro-1H-benzo[d]imidazol-1-yl)cyclopropyl)-5-fluorobenzoic acid] and O=C(O)c1cccc(C2(n3c(=O)n(-c4ccc(C5CCOC5)cc4)c4cc(Cl)ccc43)CC2)c1F (centres unmarked) [Example 250, 3-(1-(5-chloro-2-oxo-3-(4-(tetrahydrofuran-3-yl)phenyl)-2,3-dihydro-1H-benzo[d]imidazol-1-yl)cyclopropyl)-2-fluorobenzoic acid] cannot be ordered by IC50: less than 10 nM for the first, less than 10 nM for the second.

Compared with CC1(C)OCc2cc(-n3c(=O)n(C4(c5cc(F)cc(C(=O)O)c5)CC4)c4ccc(Cl)cc43)ccc21 [Example 252, 3-(1-(5-chloro-3-(1,1-dimethyl-1,3-dihydroisobenzofuran-5-yl)-2-oxo-2,3-dihydro-1H-benzo[d]imidazol-1-yl)cyclopropyl)-5-fluorobenzoic acid], CC1(C)OCc2cc(-n3c(=O)n(C4(c5cccc(C(=O)O)c5F)CC4)c4ccc(Cl)cc43)ccc21 [Example 253, 3-(1-(5-chloro-3-(1,1-dimethyl-1,3-dihydroisobenzofuran-5-yl)-2-oxo-2,3-dihydro-1H-benzo[d]imidazol-1-yl)cyclopropyl)-2-fluorobenzoic acid] is higher in IC50: less than 10 nM for the first, 10 to 100 nM for the second.

O=C1COc2cc(-n3c(=O)n(C4(c5cc(F)cc(C(=O)O)c5)CC4)c4ccc(Cl)cc43)ccc2N1 [Example 254, 3-(1-(5-chloro-2-oxo-3-(3-oxo-3,4-dihydro-2H-benzo[b][1,4]oxazin-7-yl)-2,3-dihydro-1H-benzo[d]imidazol-1-yl)cyclopropyl)-5-fluorobenzoic acid] and CN1CCOc2cc(-n3c(=O)n(C4(c5cc(F)cc(C(=O)O)c5)CC4)c4ccc(Cl)cc43)ccc21 [Example 255, 3-(1-(5-chloro-3-(4-methyl-3,4-dihydro-2H-benzo[b][1,4]oxazin-7-yl)-2-oxo-2,3-dihydro-1H-benzo[d]imidazol-1-yl)cyclopropyl)-5-fluorobenzoic acid] cannot be ordered by IC50: less than 10 nM for the first, less than 10 nM for the second.

O=C(O)c1cccc(C2(n3c(=O)n(-c4ccc(C5(O)CCC5)cc4)c4cc(Cl)ccc43)CC2)c1 [Example 256, 3-(1-(5-chloro-3-(4-(1-hydroxycyclobutyl)phenyl)-2-oxo-2,3-dihydro-1H-benzo[d]imidazol-1-yl)cyclopropyl)benzoic acid] and O=C(O)c1cccc(C2(n3c(=O)n(-c4ccc(C5(O)COC5)cc4)c4cc(Cl)ccc43)CC2)c1 [Example 258, 3-(1-(5-chloro-3-(4-(3-hydroxyoxetan-3-yl)phenyl)-2-oxo-2,3-dihydro-1H-benzo[d]imidazol-1-yl)cyclopropyl)benzoic acid] cannot be ordered by IC50: less than 10 nM for the first, less than 10 nM for the second.

O=C(O)c1cc(F)cc(C2(n3c(=O)n(-c4ccc(C5(O)CCC5)cc4)c4cc(Cl)ccc43)CC2)c1 [Example 257, 3-(1-(5-chloro-3-(4-(1-hydroxycyclobutyl)phenyl)-2-oxo-2,3-dihydro-1H-benzo[d]imidazol-1-yl)cyclopropyl)-5-fluorobenzoic acid] and O=C(O)c1cccc(C2(n3c(=O)n(-c4ccc(C5CCN(C6COC6)CC5)cc4)c4cc(Cl)ccc43)CC2)c1 [Example 260, 3-(1-(5-chloro-3-(4-(1-(oxetan-3-yl)piperidin-4-yl)phenyl)-2-oxo-2,3-dihydro-1H-benzo[d]imidazol-1-yl)cyclopropyl)benzoic acid] cannot be ordered by IC50: less than 10 nM for the first, less than 10 nM for the second.

O=C(O)c1cccc(Cn2c(=O)n(-c3ccc(C4CCN(C5COC5)CC4)cc3)c3cc(Cl)ccc32)c1 [Example 259, 3-((5-chloro-3-(4-(1-(oxetan-3-yl)piperidin-4-yl)phenyl)-2-oxo-2,3-dihydro-1H-benzo[d]imidazol-1-yl)methyl)benzoic acid] showed an IC50 of 100 to 1000 nM.

— patent publication US20260265265A1, “NOVEL BENZIMIDAZOLONE DERIVATIVE COMPOUND AS AUTOTAXIN INHIBITOR” (LG CHEM, LTD., priority 2023, published 2026)
